Laboratory results from patent publication US12534429B2, “Heterodimers of glutamic acid” (Molecular Insight Pharmaceuticals, Inc., priority 2006, dated 2026).
Where two headings read alike, the source gives them in different places.

Molecular target: T1, PSMA on LNCaP cells (Homo sapiens, UniProt Q04609)
T1 construct: LNCaP human prostate cancer cells were obtained from American Type Culture Collection; host or cells: LNCaP human prostate cancer cells
Assay: In vitro cell binding: competition with I-131 DCIT for binding to PSMA on LNCaP cells
Conditions: for competition with I-131 DCIT for binding to LnCap cells: screen at 2 uM test compound
Method: In vitro cold screening assays verses I-131 DCIT. LNCaP and PC3 human prostate cancer cells were obtained from American Type Culture Collection, Rockville, MD LNCaP cells were maintained in RPMI-1640 medium supplemented with 10% fetal bovine serum (FBS). PC3 cells were grown in F12K medium supplemented with 10% FBS. Binding of the radiolabeled compound and competition with cold derivatives to LNCaP and PC-3 cells was performed according to the methods of Tang et al. (Tang, H.; Brown, M.; Ye, Y.; Huang, G.; Zhang, Y.; Wang, Y.; Zhai, H.; Chen, X.; Shen, T. Y.; Tenniswood, M., Prostate targeting ligands based on N-acetylated alpha-linked acidic dipeptidase, Biochem. Biophys. Res. Commun. 2003, 307, 8-14) with appropriate modifications. Cells were plated in 12-well plates at approximately 4×10^5 cells/well and incubated for 48 hours in a humidified incubator at 37° C./5% carbon dioxide prior to addition of compound. Each unique SAAC-urea-Glu conjugate was prepared and diluted in serum-free cell culture medium containing 0.5% bovine serum albumin (BSA) in combination with 3 nM I-131 DCIT (known inhibitor). Total binding was determined by incubating I-131 DCIT without test compound. Plates were incubated at room temperature for 1 hour. Cells were removed from the plates by gently pipeting and transferred to eppendorff tubes. Samples were microcentrifuged for 15 seconds at 10K×g. The medium was aspirated and the pellet was washed twice by dispersal in fresh assay medium followed by microcentrifugation. Cell binding of I-131 DCIT was determined by counting the cell pellet in an automated gamma counter. […] The control compounds are depicted below.
The ability of non-radioactive analogs to compete with ^131I-DCIT for binding to PSMA was tested in the PSMA positive human prostate cancer cell line, LNCaP cells. LNCaP cells (300,000 cells/well) were incubated for 1 hour with 3 nM [^131I]-DCIT in the presence of 1-10,000 nM MIP-1072 in RPMI-1640 medium supplemented with 0.5% bovine serum albumin, then washed and counted in a gamma counter. All documents cited in this specification including patent applications are incorporated by reference in their entirety.

[1] = LNCaP cells, 3 nM I-131 DCIT, 1 hour, read-out: IC50 (nM), in vitro cell binding data
[2] = LnCap cells, dose curves, read-out: IC-50 versus I-131 DCIT
[3] = LnCap cells, dose curves, read-out: IC50 values versus I-131 DCIT

T1 sequence (Q04609 whole entry): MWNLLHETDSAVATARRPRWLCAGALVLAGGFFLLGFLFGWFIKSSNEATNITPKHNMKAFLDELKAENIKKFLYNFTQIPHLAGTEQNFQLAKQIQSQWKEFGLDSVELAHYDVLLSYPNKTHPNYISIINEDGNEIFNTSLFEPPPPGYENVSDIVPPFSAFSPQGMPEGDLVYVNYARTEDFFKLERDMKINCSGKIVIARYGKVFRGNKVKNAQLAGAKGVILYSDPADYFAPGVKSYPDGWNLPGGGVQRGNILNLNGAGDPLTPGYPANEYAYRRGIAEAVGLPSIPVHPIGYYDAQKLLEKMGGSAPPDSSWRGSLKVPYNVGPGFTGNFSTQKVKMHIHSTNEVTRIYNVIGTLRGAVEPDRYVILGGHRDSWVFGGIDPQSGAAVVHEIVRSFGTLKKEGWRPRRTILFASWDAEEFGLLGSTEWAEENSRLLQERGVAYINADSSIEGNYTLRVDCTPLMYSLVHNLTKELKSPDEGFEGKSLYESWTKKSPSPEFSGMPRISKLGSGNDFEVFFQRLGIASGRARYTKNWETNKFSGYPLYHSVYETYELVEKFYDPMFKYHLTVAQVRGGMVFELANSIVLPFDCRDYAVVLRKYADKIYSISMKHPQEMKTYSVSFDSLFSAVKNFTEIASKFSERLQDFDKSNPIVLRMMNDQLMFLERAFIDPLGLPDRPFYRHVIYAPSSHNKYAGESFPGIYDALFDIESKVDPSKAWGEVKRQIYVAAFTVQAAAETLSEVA

| Compound | IC50 [1] | other results |
| --- | --- | --- |
| O=C(O)CC[C@H](NC(=O)N[C@@H](CCCCNC(=O)Nc1ccccc1)C(=O)O)C(=O)O (stereo in doubt) [MIP 1111, 2-(3-{1-Carboxy-5-[3-(phenyl)-ureido]-pentyl}-ureido)-pentanedioic acid] | 12 nM | – |
| O=C(O)CC[C@H](NC(=O)NC(CCCCNCc1ccccc1)C(=O)O)C(=O)O (stereo in doubt) [MIP-1106, (S)-2-(3-((R)-5-(benzylamino)-1-carboxypentyl)ureido)pentanedioic acid] | 2960 nM | – |
| O=C(O)CC[C@H](NC(=O)N[C@@H](CCCCN(Cc1ccccn1)Cc1ccccn1)C(=O)O)C(=O)O [MIP 1008, (S, S)-2-{3-[5-(Bis-pyridin-2-ylmethyl-amino)-1-carboxy-pentyl]-ureido}-pentanedioic acid] | – | IC50 [2]: 98 nM; competition with I-131 DCIT for binding to LnCap cells: competed |
| O=C(O)CC[C@H](NC(=O)N(Cc1ccccn1)Cc1ccccn1)C(=O)O [MIP 1025, (S)-2-(3,3-Bis-pyridin-2-ylmethyl-ureido)-pentanedioic acid] | – | competition with I-131 DCIT for binding to LnCap cells: did not compete |
| O=C(O)CC[C@H](NC(=O)N[C@@H](CCN(Cc1ccccn1)Cc1ccccn1)C(=O)O)C(=O)O [MIP 1028, (S, S)-2-{3-[3-(Bis-pyridin-2-ylmethyl-amino)-1-carboxy-propyl]-ureido}-pentanedioic acid] | – | competition with I-131 DCIT for binding to LnCap cells: did not compete |
| NCCCC[C@H](NC(=O)N[C@@H](CCC(=O)O)C(=O)O)C(=O)O [MIP 1033, (S, S)-2-[3-(5-Amino-1-carboxy-pentyl)-ureido]-pentanedioic acid] | 498 nM | IC50 [2]: 497 nM; competition with I-131 DCIT for binding to LnCap cells: competed |
| O=C(O)CC[C@H](NC(=O)N[C@@H](CCCCNC(=O)Nc1ccc(I)cc1)C(=O)O)C(=O)O [MIP 1095, 2-(3-{1-Carboxy-5-[3-(4-iodo-phenyl)-ureido]-pentyl}-ureido)-pentanedioic acid] | 10 nM | IC50 [3]: < 50 nM |
| O=C(O)CC[C@H](NC(=O)N[C@@H](CCCCNS(=O)(=O)c1ccc(I)cc1)C(=O)O)C(=O)O [MIP 1097, 2-{3-[1-carboxy-5-(4-iodo-benzenesulfonylamino)-pentyl]-ureido}-pentanedioic acid] | – | IC50 [3]: < 50 nM |
| O=C(O)CC[C@H](NC(=O)N[C@@H](CCCCNC(=O)Nc1ccc(Cl)cc1)C(=O)O)C(=O)O [MIP 1110, 2-(3-{1-Carboxy-5-[3-(4-chloro-phenyl)-ureido]-pentyl}-ureido)-pentanedioic acid] | 4 nM | – |
| O=C(O)CC[C@H](NC(=O)N[C@@H](CCCCNCc1cccc(Cl)c1)C(=O)O)C(=O)O [MIP 1131, (S, S)-2-{3-[1-Carboxy-5-(3-chloro-benzylamino)-pentyl]-ureido}-pentanedioic] | 277 nM | – |
| O=C(O)CC[C@H](NC(=O)N[C@@H](CCCCNCc1ccc(Cl)cc1)C(=O)O)C(=O)O [MIP 1135, (S, S)-2-{3-[1-Carboxy-5-(4-chloro-benzylamino)-pentyl]-ureido}-pentanedioic] | 2 nM | – |
| O=C(O)CC[C@H](NC(=O)N[C@@H](CCCCNC(=O)NCc1cccc(I)c1)C(=O)O)C(=O)O [MIP-1101, 2-(3-{1-Carboxy-5-[3-(3-iodo-benzyl)-ureido]-pentyl}-ureido)-pentanedioic acid] | 10 nM | – |
| O=C(O)CC[C@H](NC(=O)N[C@@H](CCCCNCc1cccc2ccccc12)C(=O)O)C(=O)O [MIP-1108, (S)-2-(3-((R)-1-carboxy-5-([…]yridine[…]ne-1-ylmethylamino)pentyl)ureido)pentanedioic acid] | 154 nM | – |
| O=C(O)CC[C@H](NC(=O)N[C@@H](CCCCNC(=O)CCCCCCCCCCN(Cc1ccc(I)cc1)Cc1ccc(I)cc1)C(=O)O)C(=O)O [MIP-1130, (19S,23S)-2-(4-iodobenzyl)-1-(4-iodophenyl)-13,21-dioxo-2,14,20,22-tetraazapentacosane-19,23,25-tricarboxylic acid] | 300 nM | – |
| O=C(O)CC[C@H](NC(=O)N[C@@H](CCCCNCc1ccccc1Cl)C(=O)O)C(=O)O [MIP-1137, (S, S)-2-{3-[1-Carboxy-5-(2-chloro-benzylamino)-pentyl]-ureido}-pentanedioic] | 245 nM | – |
